{"source": "paper PMC2568864", "about": "“Chemical Dissection of the Link between Streptozotocin, O-GlcNAc, and Pancreatic Cell Death” (Chemistry & Biology, 2008)", "molecular_target": "T1, human O-GlcNAcase (hOGA) (Homo sapiens, UniProt O60502)", "T1 construct": "gene OGA; residues 53–916, GST fusion", "T1 sequence (O60502 53-916)": "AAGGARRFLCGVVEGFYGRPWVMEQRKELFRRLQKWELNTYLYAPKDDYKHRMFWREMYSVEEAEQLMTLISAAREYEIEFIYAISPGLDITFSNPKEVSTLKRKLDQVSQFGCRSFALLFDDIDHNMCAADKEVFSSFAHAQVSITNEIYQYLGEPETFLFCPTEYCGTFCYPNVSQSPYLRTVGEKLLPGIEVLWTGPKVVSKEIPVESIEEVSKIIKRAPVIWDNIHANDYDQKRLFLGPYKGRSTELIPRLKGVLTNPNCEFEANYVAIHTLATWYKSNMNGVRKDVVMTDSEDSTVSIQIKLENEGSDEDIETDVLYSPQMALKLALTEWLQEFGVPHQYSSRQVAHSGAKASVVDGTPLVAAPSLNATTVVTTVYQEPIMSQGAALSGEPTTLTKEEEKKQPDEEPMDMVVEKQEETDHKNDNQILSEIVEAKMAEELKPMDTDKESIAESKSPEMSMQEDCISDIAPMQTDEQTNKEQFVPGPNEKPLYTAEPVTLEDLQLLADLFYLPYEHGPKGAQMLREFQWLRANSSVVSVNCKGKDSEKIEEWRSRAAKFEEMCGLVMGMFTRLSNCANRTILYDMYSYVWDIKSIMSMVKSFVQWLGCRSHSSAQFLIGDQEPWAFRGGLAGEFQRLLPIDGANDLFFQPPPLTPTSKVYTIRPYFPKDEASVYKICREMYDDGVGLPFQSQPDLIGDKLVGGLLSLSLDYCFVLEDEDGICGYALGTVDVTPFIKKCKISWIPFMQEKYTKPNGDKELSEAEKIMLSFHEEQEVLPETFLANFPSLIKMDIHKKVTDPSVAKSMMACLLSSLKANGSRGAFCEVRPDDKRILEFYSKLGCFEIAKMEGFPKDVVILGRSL", "assay": "steady-state kinetics with fluorogenic 4MU-GlcNAc, Lineweaver-Burk, competitive inhibition fit", "format": "biochemical"}
{"smiles": "CN(N=O)C(=O)N[C@H]1C(O)O[C@H](CO)[C@@H](O)[C@@H]1O", "note": "(stereo partly shown) [STZ, streptozotocin]", "values": [{"measurement": "Ki", "value": "64 ± 3", "unit": "µM"}]}
